What was measured:
Type in all cases: in vivo
[1] = system: Housefly [Musca domestica]; assay: Housefly insecticidal test (HF); conditions: per 25 female houseflies, 48 hours
[2] = system: Tobacco Budworm [Heliothis virescens (Fabricius)] eggs; assay: Tobacco budworm egg test (TBW-E); conditions: percent in solution
Source text: Eggs: Paper towel patches of 2-day old eggs of the tobacco budworm were dipped in acetone solutions of the test compound and placed in petri dishes containing a portion of larval rearing medium. […] Test concentrations ranged from 0.1% downward.

[3] = system: Cabbage Looper [Trichoplusia ni (Hubner)]; assay: Cabbage looper test (CL); conditions: second-instar larvae, 3-5 days, percent in solution

Compound | LC50 HF [1] | LC50 TBW E [2] | LC50 CL [3]
CC(C)(C)C(=Nc1cccc(Cl)c1)OCc1cccc(Oc2ccccc2)c1 [Compound 12] | > 100 µg | > 0.1% | 0.008%
CC1CC1C(=Nc1ccc(Cl)cc1)OCc1cccc(Oc2ccccc2)c1 (centres unmarked) [Compound 15] | > 100 µg | > 0.01% | 0.025%
CC(C)C(=Nc1cc(Cl)c(Cl)cc1Cl)OCc1cccc(Oc2ccccc2)c1 [Compound 18] | > 100 µg | 0.09% | 0.008%
CC(C)C(=Nc1c(Cl)cc(Cl)cc1Cl)OCc1cccc(Oc2ccccc2)c1 [Compound 19] | > 100 µg | > 0.1% | < 0.1%
COC(C)C(=Nc1ccc(Cl)cc1)OCc1cccc(Oc2ccccc2)c1 (centres unmarked) [Compound 22] | 15 µg | 0.08% | 0.004%
Clc1cccc(N=C(OCc2cccc(Oc3ccccc3)c2)C2CC2)c1 [Compound 24] | 25 µg | 0.1% | 0.005%
CCC(C)C(=Nc1ccc(Cl)cc1)OCc1cccc(Oc2ccccc2)c1 (centres unmarked) [Compound 26] | > 100 µg | > 0.1% | 0.007%
CC(Cl)C(=Nc1ccc(Cl)c(Cl)c1)OCc1cccc(Oc2ccccc2)c1 (centres unmarked) [Compound 27] | > 100 µg | > 0.1% | 0.04%
CCC(=Nc1cccc(Cl)c1Cl)OCc1cccc(Oc2ccccc2)c1 [Compound 28] | > 100 µg | > 0.1% | 0.009%
CCC(=Nc1ccc(Cl)c(Cl)c1)OCc1cccc(Oc2ccccc2)c1 [Compound 36] | 20 µg | > 0.01% | 0.024%
CCCC(=Nc1ccc(Cl)c(Cl)c1)OCc1cccc(Oc2ccccc2)c1 [Compound 38] | 33 µg | 0.05% | 0.006%
CCC(C)C(=Nc1ccc(Cl)c(Cl)c1)OCc1cccc(Oc2ccccc2)c1 (centres unmarked) [Compound 39] | > 100 µg | > 0.1% | 0.0023%
CC(C)C(=Nc1ccc(Cl)c(Cl)c1)OCc1cccc(Oc2cccc(F)c2)c1 [Compound 40] | 36 µg | 0.08% | 0.0025%
CC(C)(C)C(=Nc1ccc(F)cc1)OCc1cccc(Oc2ccccc2)c1 [Compound 48] | > 100 µg | > 0.05% | 0.03%
CC(C)C(=Nc1cc(F)ccc1F)OCc1cccc(Oc2ccccc2)c1 [Compound 56] | 91 µg | > 0.05% | 0.01%
CC(C)C(=Nc1cc(F)c(F)cc1F)OCc1cccc(Oc2ccccc2)c1 [Compound 58] | 16 µg | 0.06% | 0.002%
CCC(=Nc1ccc(F)cc1F)OCc1cccc(Oc2ccccc2)c1 [Compound 59] | 25 µg | > 0.1% | 0.02%
COc1cc(N=C(OCc2cccc(Oc3ccccc3)c2)C(C)C)cc(C(F)(F)F)c1 [Compound 76] | 20 µg | 0.05% | 0.002%
CC(C)C(=Nc1cc(C(F)(F)F)cc(C(F)(F)F)c1)OCc1cccc(Oc2ccccc2)c1 [Compound 78] | > 100 µg | > 0.1% | 0.0025%
CC(C)C(=Nc1cccc(Oc2ccccn2)c1)OCc1cccc(Oc2ccccc2)c1 [Compound 114] | 92 µg | – | < 0.1%
FC(F)(F)c1ccc(Oc2ccc(COC(=Nc3ccc(Cl)cc3)C(Cl)Cl)cc2)nc1 [Compound 453] | > 100 µg | – | 0.1%
CC(C)C(=Nc1ccc(F)c(Cl)c1)OC(F)c1cccc(Oc2ccc(F)cc2)c1 (centres unmarked) [Compound 502] | 80 µg | – | –
